pIC50: −log10 of the molar value. ≈ marks a conversion by molar mass, not a printed value. Calls of active or inactive are those of the source. The rule behind the calls is not given here.
Key:
Aspergillus fumigatus = experiment: Antifungal activity against Aspergillus fumigatus 7544 assessed as inhibition of fungal growth incubated for 48 hrs by CLSI protocol based microbroth dilution method; type: functional
Nakaseomyces glabratus = experiment: Antifungal activity against Candida glabrata 537 assessed as inhibition of fungal growth incubated for 48 hrs by CLSI protocol based microbroth dilution method; type: functional
[Candida] auris [1] = Antifungal activity against fluconazole resistant Candida auris BS12372 assessed as inhibition of fungal growth incubated for 48 hrs by CLSI protocol based microbroth dilution method; type: functional; conditions: Candidozyma auris
[Candida] auris [2] = Antifungal activity against fluconazole resistant Candida auris 887 assessed as inhibition of fungal growth incubated for 48 hrs by CLSI protocol based microbroth dilution method; type: functional; conditions: Candidozyma auris
Candida tropicalis [3] = experiment: Antifungal activity against Candida tropicalis 2718 assessed as inhibition of fungal growth incubated for 24 hrs by CLSI protocol based microbroth dilution method; type: functional
[Candida] auris [4] = Antifungal activity against fluconazole resistant Candida auris 789 assessed as inhibition of fungal growth incubated for 48 hrs by CLSI protocol based microbroth dilution method; type: functional; conditions: Candidozyma auris
[Candida] auris [5] = Antifungal activity against fluconazole resistant Candida auris D12 assessed as inhibition of fungal growth incubated for 48 hrs by CLSI protocol based microbroth dilution method; type: functional; conditions: Candidozyma auris
[Candida] auris [6] = Antifungal activity against fluconazole resistant Candida auris 888 assessed as inhibition of fungal growth incubated for 48 hrs by CLSI protocol based microbroth dilution method; type: functional; conditions: Candidozyma auris
Candida parapsilosis = experiment: Antifungal activity against Candida parapsilosis 22019 assessed as inhibition of fungal growth incubated for 24 hrs by CLSI protocol based microbroth dilution method; type: functional; conditions: Lodderomyces parapsilosis
Cryptococcus neoformans [7] = experiment: Antifungal activity against Cryptococcus neoformans H99 assessed as inhibition of fungal growth incubated for 72 hrs by CLSI protocol based microbroth dilution method; type: functional
[Candida] auris [8] = Antifungal activity against fluconazole resistant Candida auris 791 assessed as inhibition of fungal growth incubated for 48 hrs by CLSI protocol based microbroth dilution method; type: functional; conditions: Candidozyma auris
Candida albicans [9] = experiment: Antifungal activity against Candida albicans SC5314 assessed as inhibition of fungal growth incubated for 24 hrs by CLSI protocol based microbroth dilution method; type: functional
Pichia kudriavzevii [10] = experiment: Antifungal activity against Candida krusei 4946 assessed as inhibition of fungal growth incubated for 24 hrs by CLSI protocol based microbroth dilution method; type: functional
Pichia kudriavzevii [11] = experiment: Antifungal activity against Candida krusei 4946 assessed as inhibition of fungal growth at 0.125 ug/ml incubated for 24 hrs by plate reader analysis; type: functional, organism-based; conditions: dose 0.125 µg/ml
Cryptococcus neoformans [12] = experiment: Antifungal activity against Cryptococcus neoformans H99 assessed as inhibition of fungal growth at 0.125 ug/ml incubated for 48 hrs by plate reader analysis; type: functional, organism-based; conditions: dose 0.125 µg/ml
Candida albicans [13] = experiment: Antifungal activity against Candida albicans SC5314 assessed as inhibition of fungal growth at 0.0156 ug/ml incubated for 24 hrs by plate reader analysis; type: functional, organism-based; conditions: dose 0.0156 µg/ml
Cell membrane = experiment: Disruption of cell membrane integrity in Candida albicans SC5314 assessed as increase in increase in red fluorescence at 0.5 ug/ml incubated for 8 hrs by PI staining based fluorescence microscopic analysis; conditions: dose 0.5 µg/ml
[14] = target: Lanosterol 14-alpha demethylase (Candida albicans (strain SC5314 / ATCC MYA-2876) (Yeast), UniProt P10613); experiment: Inhibition of CYP51 in Candida albicans SC5314 assessed as ergosterol level at 0.5 ug/ml incubated for 8 hrs by GC-MS analysis (reference value: 79.31%); parameters: scale not given: the % may be the effect or the level left; conditions: at 0.5 µg/mL
Lanosterol 14-alpha demethylase, sequence (P10613 whole entry): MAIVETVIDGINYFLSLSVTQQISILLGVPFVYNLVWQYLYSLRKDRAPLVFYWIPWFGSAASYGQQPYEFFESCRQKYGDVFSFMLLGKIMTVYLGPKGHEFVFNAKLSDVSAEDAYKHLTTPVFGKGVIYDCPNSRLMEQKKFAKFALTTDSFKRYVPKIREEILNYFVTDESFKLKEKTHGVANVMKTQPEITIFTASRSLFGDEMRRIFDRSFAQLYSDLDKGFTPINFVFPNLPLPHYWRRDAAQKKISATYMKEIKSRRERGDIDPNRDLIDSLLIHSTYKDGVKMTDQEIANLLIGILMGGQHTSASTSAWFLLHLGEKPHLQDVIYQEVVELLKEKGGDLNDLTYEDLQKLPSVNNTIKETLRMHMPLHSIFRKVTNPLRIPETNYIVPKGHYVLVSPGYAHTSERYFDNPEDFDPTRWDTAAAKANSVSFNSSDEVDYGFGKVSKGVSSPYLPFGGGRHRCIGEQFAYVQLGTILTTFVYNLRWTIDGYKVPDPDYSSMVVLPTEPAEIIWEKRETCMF

Candida albicans [15] = experiment: Antifungal activity against Candida albicans SC5314 infected in ICR mouse model assessed as fungal burden in kidney at 1 mg/kg/day, po pre-infected with fungi for 2 hrs followed by compound administration and measured after 48 hrs (reference value: 3.89 Log10CFU/g); type: functional
Erythrocyte = experiment: Hemolytic activity in rabbit RBC assessed as hemolysis at 64 ug/ml incubated for 1 hrs by absorbance based assay; type: toxicity, cell-based, Oryctolagus cuniculus; conditions: dose 64 µg/ml
[16] = Hemolytic activity in rabbit RBC assessed as hemolysis at 4 ug/ml incubated for 1 hrs by absorbance based assay relative to control; type: toxicity, cell-based, Oryctolagus cuniculus, Erythrocyte; conditions: rabbit red blood cells, at 4 µg/mL, read-out: Activity
Candida tropicalis [17] = experiment: Antifungal activity against Candida tropicalis 2718 assessed as inhibition of fungal growth at 32 ug/ml incubated for 24 hrs by plate reader analysis; type: functional, organism-based; conditions: dose 32.0 µg/ml
Candida albicans [18] = experiment: Antifungal activity against Candida albicans SC5314 infected in ICR mouse model assessed as median survival time at 1 mg/kg/day, po pre-infected with fungi for 2 hrs followed by compound administration and measured after 48 hrs (reference value: 3.5 days); type: functional
Cytochrome P450 2D6 = Cytochrome P450 2D6 (Homo sapiens, UniProt P10635)
Cytochrome P450 2D6, sequence (P10635 whole entry): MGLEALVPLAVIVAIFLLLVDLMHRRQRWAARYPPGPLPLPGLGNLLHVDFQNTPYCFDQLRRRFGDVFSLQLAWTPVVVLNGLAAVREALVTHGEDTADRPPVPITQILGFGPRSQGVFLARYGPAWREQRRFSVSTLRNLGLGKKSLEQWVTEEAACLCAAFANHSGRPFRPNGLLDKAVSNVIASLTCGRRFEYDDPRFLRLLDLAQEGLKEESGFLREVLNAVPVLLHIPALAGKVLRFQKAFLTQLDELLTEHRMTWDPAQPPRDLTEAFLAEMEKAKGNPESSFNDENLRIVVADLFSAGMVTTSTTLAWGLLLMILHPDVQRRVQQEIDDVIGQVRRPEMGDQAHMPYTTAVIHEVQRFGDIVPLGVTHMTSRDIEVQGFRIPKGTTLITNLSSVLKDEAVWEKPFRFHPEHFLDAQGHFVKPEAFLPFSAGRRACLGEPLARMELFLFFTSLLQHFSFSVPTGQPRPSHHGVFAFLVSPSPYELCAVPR

Cytochrome P450 3A4 = Cytochrome P450 3A4 (Homo sapiens, UniProt P08684)
Cytochrome P450 3A4, sequence (P08684 whole entry): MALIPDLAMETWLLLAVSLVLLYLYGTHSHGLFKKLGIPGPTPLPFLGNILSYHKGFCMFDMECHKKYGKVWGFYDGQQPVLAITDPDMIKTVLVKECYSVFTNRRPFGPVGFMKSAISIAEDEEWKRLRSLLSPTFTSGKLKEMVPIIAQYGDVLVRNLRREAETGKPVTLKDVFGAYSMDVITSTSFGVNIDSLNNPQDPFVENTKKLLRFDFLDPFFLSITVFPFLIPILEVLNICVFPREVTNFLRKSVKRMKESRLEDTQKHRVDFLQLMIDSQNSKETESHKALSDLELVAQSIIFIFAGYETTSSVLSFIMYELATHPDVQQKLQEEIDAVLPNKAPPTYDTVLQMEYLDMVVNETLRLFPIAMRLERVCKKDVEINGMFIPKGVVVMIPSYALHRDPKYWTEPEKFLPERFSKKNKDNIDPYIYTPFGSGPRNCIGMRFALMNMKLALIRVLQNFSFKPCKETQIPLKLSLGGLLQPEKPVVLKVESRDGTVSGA

Cytochrome P450 1A2 = target: T1, Cytochrome P450 1A2 (Homo sapiens, UniProt P05177); experiment: Inhibition of CYP1A2 in human liver microsomes using phenacetin as substrate in presence of NADPH by LC-MS/MS analysis
T1 sequence (P05177 whole entry): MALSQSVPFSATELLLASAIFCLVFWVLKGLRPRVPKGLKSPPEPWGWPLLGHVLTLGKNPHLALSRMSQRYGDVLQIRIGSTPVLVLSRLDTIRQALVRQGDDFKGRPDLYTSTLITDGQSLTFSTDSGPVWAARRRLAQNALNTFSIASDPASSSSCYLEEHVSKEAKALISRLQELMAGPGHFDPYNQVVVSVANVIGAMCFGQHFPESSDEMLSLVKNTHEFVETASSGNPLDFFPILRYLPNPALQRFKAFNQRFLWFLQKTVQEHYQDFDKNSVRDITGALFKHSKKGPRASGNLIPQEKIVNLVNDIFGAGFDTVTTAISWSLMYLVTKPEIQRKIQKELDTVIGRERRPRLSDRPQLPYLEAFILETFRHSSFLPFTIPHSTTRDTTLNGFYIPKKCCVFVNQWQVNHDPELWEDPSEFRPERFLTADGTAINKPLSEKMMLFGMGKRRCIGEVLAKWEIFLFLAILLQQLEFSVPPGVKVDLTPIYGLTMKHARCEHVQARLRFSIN

Cytochrome P450 2C19 = Cytochrome P450 2C19 (Homo sapiens, UniProt P33261)
Cytochrome P450 2C19, sequence (P33261 whole entry): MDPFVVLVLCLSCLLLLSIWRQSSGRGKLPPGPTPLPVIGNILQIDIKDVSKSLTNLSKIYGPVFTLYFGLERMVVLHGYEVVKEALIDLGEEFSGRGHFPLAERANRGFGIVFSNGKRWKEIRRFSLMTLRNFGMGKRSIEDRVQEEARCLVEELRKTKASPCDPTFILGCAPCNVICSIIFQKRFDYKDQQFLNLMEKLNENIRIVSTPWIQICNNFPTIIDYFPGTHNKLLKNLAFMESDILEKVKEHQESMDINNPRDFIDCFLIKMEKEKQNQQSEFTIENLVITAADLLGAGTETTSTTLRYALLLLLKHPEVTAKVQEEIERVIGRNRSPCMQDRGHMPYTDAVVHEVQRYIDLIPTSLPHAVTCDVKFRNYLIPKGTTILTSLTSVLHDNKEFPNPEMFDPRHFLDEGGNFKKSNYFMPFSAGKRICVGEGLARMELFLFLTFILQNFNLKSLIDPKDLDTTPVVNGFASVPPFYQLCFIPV

Cytochrome P450 2C9 = Cytochrome P450 2C9 (Homo sapiens, UniProt P11712)
Cytochrome P450 2C9, sequence (P11712 whole entry): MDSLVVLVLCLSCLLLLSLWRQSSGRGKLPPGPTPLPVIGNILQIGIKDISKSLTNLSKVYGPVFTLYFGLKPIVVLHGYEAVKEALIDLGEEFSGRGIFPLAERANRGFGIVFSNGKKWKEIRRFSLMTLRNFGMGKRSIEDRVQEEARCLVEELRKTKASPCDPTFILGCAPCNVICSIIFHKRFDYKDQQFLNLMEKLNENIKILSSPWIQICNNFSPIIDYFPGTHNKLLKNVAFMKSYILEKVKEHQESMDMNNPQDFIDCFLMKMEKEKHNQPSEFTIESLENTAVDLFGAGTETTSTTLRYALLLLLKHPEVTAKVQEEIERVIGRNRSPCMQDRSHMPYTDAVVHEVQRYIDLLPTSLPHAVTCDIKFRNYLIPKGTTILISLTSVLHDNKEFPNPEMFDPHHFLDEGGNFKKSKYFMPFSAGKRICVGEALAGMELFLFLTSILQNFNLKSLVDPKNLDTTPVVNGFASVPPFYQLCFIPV

| SMILES | MIC50 (Aspergillus fumigatus) [µg/mL] | MIC50 (Nakaseomyces glabratus) [µg/mL] | MIC50 ([Candida] auris [1]) [µg/mL] | MIC50 ([Candida] auris [2]) [µg/mL] | MIC50 (Candida tropicalis [3]) [µg/mL] | MIC50 ([Candida] auris [4]) [µg/mL] | MIC50 ([Candida] auris [5]) [µg/mL] | MIC50 ([Candida] auris [6]) [µg/mL] | MIC50 (Candida parapsilosis) [µg/mL] | MIC50 (Cryptococcus neoformans [7]) [µg/mL] | MIC50 ([Candida] auris [8]) [µg/mL] | MIC50 (Candida albicans [9]) [µg/mL] | MIC50 (Pichia kudriavzevii [10]) [µg/mL] | Activity (Cryptococcus neoformans [12]) | Activity (Candida albicans [13]) | also measured |
| --- | --- | --- | --- | --- | --- | --- | --- | --- | --- | --- | --- | --- | --- | --- | --- | --- |
| C[C@@H](n1cnc2cc(Cl)ccc2c1=O)[C@](O)(Cn1cnnn1)c1ccc(F)cc1F | 8 (≈ 18.5 µM) | 0.031 (≈ 0.0716 µM) | 8 (≈ 18.5 µM) | 32 (≈ 73.9 µM) | < 0.008 | 16 (≈ 37 µM) | 8 (≈ 18.5 µM) | 16 (≈ 37 µM) | 0.063 (≈ 0.146 µM) | 2 (≈ 4.62 µM) | 32 (≈ 73.9 µM) | < 0.008 | 0.25 (≈ 0.578 µM) |  |  |  |
| CC[C@@H]([C@H](C)O)n1ncn(-c2ccc(N3CCN(c4ccc(OC[C@@H]5CO[C@@](Cn6cncn6)(c6ccc(F)cc6F)C5)cc4)CC3)cc2)c1=O [POSACONAZOLE] | 0.25 (≈ 0.357 µM) | 0.5 (≈ 0.713 µM) | 1 (≈ 1.43 µM) | 16 (≈ 22.8 µM) | < 0.008 | 16 (≈ 22.8 µM) | 0.5 (≈ 0.713 µM) | 8 (≈ 11.4 µM) | 0.25 (≈ 0.357 µM) | 0.063 (≈ 0.0899 µM) | 2 (≈ 2.85 µM) | 0.016 (≈ 0.0228 µM) | 0.5 (≈ 0.713 µM) |  |  |  |
| C[C@@H](n1ccc2cc(Cl)ccc2c1=O)[C@](O)(Cn1cncn1)c1ccc(F)cc1F | 0.25 (≈ 0.58 µM) | < 0.008 | 0.25 (≈ 0.58 µM) | 0.25 (≈ 0.58 µM) | < 0.008 | 0.5 (≈ 1.16 µM) | 0.25 (≈ 0.58 µM) | 0.25 (≈ 0.58 µM) | < 0.008 | < 0.008 | 0.5 (≈ 1.16 µM) | < 0.008 | 0.063 (≈ 0.146 µM) | Active | Active | Activity (Pichia kudriavzevii [11]): Active |
| OC(Cn1cncn1)(Cn1cncn1)c1ccc(F)cc1F [FLUCONAZOLE] | > 64 | 0.5 (≈ 1.63 µM) | > 64 | > 64 | < 0.125 | > 64 | > 64 | > 64 | 1 (≈ 3.27 µM) | 8 (≈ 26.1 µM) | > 64 | 0.125 (≈ 0.408 µM) | 8 (≈ 26.1 µM) |  |  | Activity (Cell membrane): Active; Activity [14]: 10.61%; Activity (Candida albicans [15]): 2.41 log10CFU/g; Activity (Erythrocyte): Non-Toxic |
| C[C@@H]1[C@H](O)[C@@H](C)/C=C/C=C/C=C/C=C/C=C/C=C/C=C/[C@H](O[C@@H]2O[C@H](C)[C@@H](O)[C@H](N)[C@@H]2O)C[C@@H]2O[C@](O)(C[C@@H](O)C[C@@H](O)[C@H](O)CC[C@@H](O)C[C@@H](O)CC(=O)O[C@H]1C)C[C@H](O)[C@H]2C(=O)O [AMPHOTERICIN B] |  |  | 2 (≈ 2.16 µM) | 2 (≈ 2.16 µM) |  | 2 (≈ 2.16 µM) | 4 (≈ 4.33 µM) | 2 (≈ 2.16 µM) |  |  | 4 (≈ 4.33 µM) |  |  |  |  | hemolysis at 1 h, 4 ug/ml [16]: > 50% |
| C[C@@H](c1ncncc1F)[C@](O)(Cn1cncn1)c1ccc(F)cc1F [VORICONAZOLE] | 0.25 (≈ 0.716 µM) | < 0.008 | 2 (≈ 5.73 µM) | 2 (≈ 5.73 µM) | < 0.008 | 2 (≈ 5.73 µM) | 2 (≈ 5.73 µM) | 2 (≈ 5.73 µM) | 0.016 (≈ 0.0458 µM) | 0.063 (≈ 0.18 µM) | 4 (≈ 11.5 µM) | < 0.008 | 0.063 (≈ 0.18 µM) |  |  |  |
| C[C@@H](n1ncc2cc(Cl)ccc2c1=O)[C@](O)(Cn1cncn1)c1ccc(F)cc1F | 0.25 (≈ 0.579 µM) | < 0.008 | 0.5 (≈ 1.16 µM) | 1 (≈ 2.32 µM) | < 0.008 | 2 (≈ 4.63 µM) | 0.5 (≈ 1.16 µM) | 1 (≈ 2.32 µM) | < 0.008 | < 0.008 | 1 (≈ 2.32 µM) | < 0.008 | 0.125 (≈ 0.289 µM) | Active | Active |  |
| C[C@@H](n1ncc2cc(Cl)ccc2c1=O)[C@](O)(Cn1cnnn1)c1ccc(F)cc1F | 8 (≈ 18.5 µM) | < 0.008 | 4 (≈ 9.24 µM) | 16 (≈ 37 µM) | < 0.008 | 16 (≈ 37 µM) | 8 (≈ 18.5 µM) | 32 (≈ 73.9 µM) | 0.063 (≈ 0.146 µM) | 0.063 (≈ 0.146 µM) | 32 (≈ 73.9 µM) | < 0.008 | 0.5 (≈ 1.16 µM) |  |  | Activity (Candida tropicalis [17]): Active |
| C[C@@H](n1cnc2cc(Cl)ccc2c1=O)[C@](O)(Cn1cncn1)c1ccc(F)cc1F [ALBACONAZOLE] | 0.25 (≈ 0.579 µM) | < 0.008 | 0.25 (≈ 0.579 µM) | 0.5 (≈ 1.16 µM) | < 0.008 | 0.5 (≈ 1.16 µM) | 0.5 (≈ 1.16 µM) | 0.5 (≈ 1.16 µM) | < 0.008 | < 0.008 | 0.5 (≈ 1.16 µM) | < 0.008 | 0.125 (≈ 0.289 µM) |  | Active | MST (Candida albicans [18]): 3.5 days; pIC50 (Cytochrome P450 2D6): 4.50; pIC50 (Cytochrome P450 3A4): 7.40; Activity (Candida albicans [15]): 3.54 log10CFU/g; pIC50 (Cytochrome P450 1A2): 4.22; pIC50 (Cytochrome P450 2C19): 4.89; Activity (Candida tropicalis [17]): Active; pIC50 (Cytochrome P450 2C9): 4.98 |
| O[C@@](Cn1cnnn1)(c1ccc(F)cc1F)C(F)(F)c1ccc(-c2ccc(OCC(F)(F)F)cc2)cn1 [OTESECONAZOLE] | > 64 | < 0.008 | 1 (≈ 1.9 µM) | 4 (≈ 7.58 µM) | < 0.008 | 8 (≈ 15.2 µM) | 4 (≈ 7.58 µM) | 8 (≈ 15.2 µM) | < 0.008 | < 0.008 | 8 (≈ 15.2 µM) | < 0.008 | 0.5 (≈ 0.948 µM) | Active | Active |  |
